In patent publication US8754209B2, “Indazole derivatives or pharmaceutically acceptable salts thereof as protein kinase inhibitors for proliferative diseases treatment, and a pharmaceutical composition containing the same as an active ingredient” (Korea Institute of Science and Technology, priority 2009, dated 2014):

Test system: A375P cells
Experiment: Anti-proliferative activity on A375P cell line (MTT assay)
Assay type: cell-based
Settings: A375P human melanoma cell line
Experimental: A375P cells were purchased from American Type Culture Collection (ATCC, Rockville, Md., US) and maintained in DMEM medium (Welgene, Daegu, Korea) supplemented with 10% FBS (Welgene) and 1% penicillin/streptomycin (Welgene) in a humidified atmosphere with 5% CO2 at 37° C. The A375P cells were taken from culture substrate with 0.05% trypsin-0.02% EDTA and plated at a density of 5×10^3 cells/well in 96 well plates and then incubated at 37° C. for 24 h in a humidified atmosphere with 5% CO2 prior to treatment of various concentration (three fold serial dilution, 12 points) of test compounds. The A357P cell viability was assessed by the conventional 3-(4,5-dimethylthiazol-2-yl)-2,5-diphenyltetrazolium bromide (MTT) reduction assay. MTT assays were carried out with CellTiter 96 (Promega) according to the manufacturer's instructions.
After 1 day, 0.5 μl the representative compounds of the examples were added thereto. The representative compounds of the examples were prepared by three fold serial dilution of 10 mM stock solution in DMSO, 12 point (final conc. DMSO 0.5%). Then, 15 μl dye was added in each well. After 2 h, 100 μl stop solution was added each well. After 24 h, absorbance was measured. The absorbance at 590 nm was recorded using EnVision2103 (PerkinElmer; Boston, Mass., US). The IC50 value was calculated using GraphPad Prism 4.0 software.

Compound	GI50
O=C(Nc1ccc(-c2ccc3c(C(=O)NCCN4CCOCC4)n[nH]c3c2)cc1)Nc1ccc(Cl)c(Cl)c1 [Example 36, 6-(4-(3-(3,4-dichlorophenyl)ureido)phenyl)-N-(2-morpholinoethyl)-1H-indazole-3-carboxamide]	< 10 µM
CNC(=O)c1n[nH]c2cc(-c3ccc(NC(=O)c4ccc(-c5ccc(OC)cc5)o4)cc3)ccc12 [Example 25, 6-(4-(5-(4-methoxyphenyl)furan-2-carboxamido)phenyl)-N-methyl-1H-indazole-3-carboxamide]	< 10 µM
CNC(=O)c1n[nH]c2cc(-c3ccc(NC(=O)c4ccc(OC5CCN(C)CC5)c(C(F)(F)F)c4)cc3)ccc12 [Example 40, N-methyl-6-(4-(4-(1-methylpiperidin-4-yloxy)-3-(trifluoromethyl)benzamido)phenyl)-1H-indazole-3-carboxamide]	< 10 µM
CCOC(=O)c1n[nH]c2cc(-c3ccc(NC(=O)c4ccnnc4)cc3)ccc12 [Example 10, ethyl 6-(4-(pyridazine-4-carboxamido)phenyl)-1H-indazole-3-carboxylate]	< 10 µM
CCOC(=O)c1n[nH]c2cc(-c3ccc(NC(=O)c4cccc(C(F)(F)F)c4)cc3)ccc12 [Example 2, ethyl 6-(4-(3-(trifluoromethyl)benzamido)phenyl)-1H-indazole-3-carboxylate]	< 10 µM
CNC(=O)c1n[nH]c2cc(-c3ccc(NC(=O)c4ccc(Br)s4)cc3)ccc12 [Example 26, 6-(4-(5-bromothiophene-2-carboxamido)phenyl)-N-methyl-1H-indazole-3-carboxamide]	< 10 µM
O=C(Nc1cccc(-c2ccc3c(C(=O)NCCN4CCOCC4)n[nH]c3c2)c1)c1cc(N2CCC(O)CC2)cc(C(F)(F)F)c1 [Example 77, 6-(3-(3-(4-hydroxypiperidin-1-yl)-5-(trifluoromethyl)benzamido)phenyl)-N-(2-morpholinoethyl)-1H-indazole-3-carboxamide]	< 10 µM
COC(=O)c1n[nH]c2cc(-c3cccc(NC(=O)c4cc(N5CCOCC5)cc(C(F)(F)F)c4)c3)ccc12 [Example 52, methyl 6-(3-(3-morpholino-5-(trifluoromethyl)benzamido)phenyl)-1H-indazole-3-carboxylate]	< 10 µM
CCOC(=O)c1n[nH]c2cc(-c3cccc(NC(=O)Nc4ccc(Cl)c(Cl)c4)c3)ccc12 [Example 55, ethyl 6-(3-(3-(3,4-dichlorophenyl)ureido)phenyl)-1H-indazole-3-carboxylate]	< 10 µM
COC(=O)c1n[nH]c2ccc(-c3ccc(NC(=O)Nc4ccc(Cl)c(C(F)(F)F)c4)cc3)cc12 [Example 43, methyl 5-(4-(3-(4-chloro-3-(trifluoromethyl)phenyl)ureido)phenyl)-1H-indazole-3-carboxylate]	< 10 µM
CCOC(=O)c1n[nH]c2cc(-c3cccc(NC(=O)c4ccc(Br)s4)c3)ccc12 [Example 49, ethyl 6-(3-(5-bromothiophene-2-carboxamido)phenyl)-1H-indazole-3-carboxylate]	< 10 µM
COC(=O)c1n[nH]c2cc(-c3cccc(NC(=O)c4ccc(OC5CCN(C)CC5)c(C(F)(F)F)c4)c3)ccc12 [Example 78, methyl 6-(3-(4-(1-methylpiperidin-4-yloxy)-3-(trifluoromethyl)benzamido)phenyl)-1H-indazole-3-carboxylate]	< 10 µM
CCOC(=O)c1n[nH]c2cc(-c3ccc(NC(=O)Nc4cccc(C(F)(F)F)c4)cc3)ccc12 [Example 23, ethyl 6-(4-(3-(3-(trifluoromethyl)phenyl)ureido)phenyl)-1H-indazole-3-carboxylate]	< 10 µM
COC(=O)c1n[nH]c2cc(-c3cccc(NC(=O)Nc4ccc(N5CCN(C)CC5)c(C(F)(F)F)c4)c3)ccc12 [Example 70, methyl 6-(3-(3-(4-(4-methylpiperazin-1-yl)-3-(trifluoromethyl)phenyl)ureido)phenyl)-1H-indazole-3-carboxylate]	< 10 µM
CCOC(=O)c1n[nH]c2cc(-c3ccc(NC(=O)c4ccc(OC5CCN(C)CC5)c(C(F)(F)F)c4)cc3)ccc12 [Example 19, ethyl 6-(4-(4-(1-methylpiperidin-4-yloxy)-3-(trifluoromethyl)benzamido)phenyl)-1H-indazole-3-carboxylate]	< 10 µM
CCNC(=O)c1n[nH]c2cc(-c3cccc(NC(=O)Nc4cccc(Cl)c4Cl)c3)ccc12 [Example 61, 6-(3-(3-(2,3-dichlorophenyl)ureido)phenyl)-N-ethyl-1H-indazole-3-carboxamide]	< 10 µM
CNC(=O)c1n[nH]c2cc(-c3ccc(NC(=O)c4cc5ccccc5s4)cc3)ccc12 [Example 27, 6-(4-(benzo[b]thiophene-2-carboxamido)phenyl)-N-methyl-1H-indazole-3-carboxamide]	< 10 µM
CCOC(=O)c1n[nH]c2cc(-c3ccc(NC(=O)Cc4ccc(OC)c(OC)c4)cc3)ccc12 [Example 11, ethyl 6-(4-(2-(3,4-dimethoxyphenyl)acetamido)phenyl)-1H-indazole-3-carboxylate]	< 10 µM
CCOC(=O)c1n[nH]c2cc(-c3cccc(NC(=O)c4cc(N5CCC(O)CC5)cc(C(F)(F)F)c4)c3)ccc12 [Example 76, ethyl 6-(3-(3-(4-hydroxypiperidin-1-yl)-5-(trifluoromethyl)benzamido)phenyl)-1H-indazole-3-carboxylate]	< 10 µM
O=C(Nc1cccc(-c2ccc3c(C(=O)NCCN4CCOCC4)n[nH]c3c2)c1)c1cc(N2CCOCC2)cc(C(F)(F)F)c1 [Example 59, 6-(3-(3-morpholino-5-(trifluoromethyl)benzamido)phenyl)-N-(2-morpholinoethyl)-1H-indazole-3-carboxamide]	< 10 µM
CCOC(=O)c1n[nH]c2cc(-c3cccc(NC(=O)c4cc(C)on4)c3)ccc12 [Example 46, ethyl 6-(3-(5-methylisoxazole-3-carboxamido)phenyl)-1H-indazole-3-carboxylate]	< 10 µM
O=C(Nc1ccc(-c2ccc3c(C(=O)NCCN4CCOCC4)n[nH]c3c2)cc1)c1ccc(Br)s1 [Example 31, 6-(4-(5-bromothiophene-2-carboxamido)phenyl)-N-(2-morpholinoethyl)-1H-indazole-3-carboxamide]	< 10 µM
CCNC(=O)c1n[nH]c2cc(-c3cccc(NC(=O)Nc4ccc(Cl)c(Cl)c4)c3)ccc12 [Example 62, 6-(3-(3-(3,4-dichlorophenyl)ureido)phenyl)-N-ethyl-1H-indazole-3-carboxamide]	< 10 µM
O=C(Nc1ccc(-c2ccc3[nH]nc(C(=O)NCCN4CCOCC4)c3c2)cc1)Nc1ccc(Cl)c(C(F)(F)F)c1 [Example 72, 5-(4-(3-(4-chloro-3-(trifluoromethyl)phenyl)ureido)phenyl)-N-(2-morpholinoethyl)-1H-indazole-3-carboxamide]	< 10 µM
CCOC(=O)c1n[nH]c2cc(-c3cccc(NC(=O)Nc4ccc(CN5CCN(CC)CC5)c(C(F)(F)F)c4)c3)ccc12 [Example 69, ethyl 6-(3-(3-(4-((4-ethylpiperazin-1-yl)methyl)-3-(trifluoromethyl)phenyl)ureido)phenyl)-1H-indazole-3-carboxylate]	< 10 µM
CCOC(=O)c1n[nH]c2cc(-c3ccc(NC(=O)Nc4ccc(Cl)c(Cl)c4)cc3)ccc12 [Example 20, ethyl 6-(4-(3-(3,4-dichlorophenyl)ureido)phenyl)-1H-indazole-3-carboxylate]	< 10 µM
